{"source": "patent US7169792B2", "about": "“Method of treating bacterial infections using gemifloxacin or a salt thereof and a β-lactam antibiotic” (priority 2002, dated 2007)", "key": {"S. saprophyticus 662": {"test_system": "S. saprophyticus 662", "assay": "checkerboard titration, gemifloxacin and amoxicillin (MIC, FIC)", "assay_type": "cell-based, Staphylococcus saprophyticus", "method": "The concentration range tested varied for each drug/organism combination to encompass the MIC endpoints of the individual components. […] The last well (H) in column 12 was used as a positive growth control well, containing only medium and test isolate.\nThe bacteria were diluted to a 0.5 McFarland standard and then further diluted 1/50. Each well was inoculated with 25 μl of the isolate to give a final inoculum density of approximately 5×10^5 cfu/ml. […] After inoculation, the plates were covered with a 96 well microtitre plate lid and incubated at 35° C. in ambient air for 20–24 hours. A 10 μl aliquot of the inoculum was plated on trypticase soy agar containing 5% sheep blood to determine the purity of the final test inoculum.\nFollowing incubation, a microtitre mirror reader (Cooke Instruments Ltd., England) was used to assist in determining the microdilution MIC endpoints. The MIC was determined as the lowest concentration of compound that inhibited visible growth of the organism.\n2) S. saprophyticus 662 was obtained from the SmithKline Beecham Anti-Infectives Research Culture Collection and stored at −80° C. in 10% glycerol. Before testing, the isolate was passaged onto agar plates (trypticase soy agar containing 5% sheeps blood) from the frozen stock for two consecutive days. Cation adjusted Mueller Hinton broth (BBL, Cockeysville, Md.) was used for the isolate.\nThe combined effect of gemifloxacin and amoxicillin was investigated in S. saprophyticus 662 by using the checkerboard titration method described in Example 1."}, "[1]": {"test_system": "clinically isolated P. aeruginosa", "assay": "checkerboard titration, gemifloxacin or ciprofloxacin with ceftazidime, 27 clinical isolates (Example 4)", "assay_type": "cell-based, Pseudomonas aeruginosa", "details": "for FICA: FIC of gemifloxacin; for Cgemifloxacin MIC: in combination with ceftazidime; for MIC: Pseudomonas aeruginosa, drug alone, read-out: gemifloxacin MIC", "experimental": "The test organisms were clinical isolates collected in Korea. Organisms were frozen at −70 C prior to testing. Testing was done by the checkerboard method in 96-well plates using Mueller-Hinton broth. […] Ceftazidime was also dispensed alone in the first row in the first column. Test strains of P. aeruginosa were grown for 18 h in Mueller-Hinton broth, and then these overnight cultures were diluted with the same fresh medium to the density of approximately 10^7 CFU/mL. The bacterial concentrations were determined by measuring optical density or turbidity of the suspension and were verified by standard colony counts on antibiotic-free agar plates. A diluted bacterial solution was applied to 96-well plates containing serially diluted antimicrobial agents to yield 10^4 CFU per spot. Plates were incubated aerobically overnight.\nMinimal inhibitory concentrations (MICs) for each separate drug were determined. For wells along the growth-no growth interface, synergy was determined by calculating the Fractional Inhibitory Concentration (FIC) index. The Fractional Inhibitory Concentration (FIC) indices were calculated using the following formula: FICindex=FICA+FICB=[A]/MICA+[B]/MICB • Wherein: • FICA(or B), is the FIC of drug A (or B) MICA (or B) is the MIC of the organism to drug A (or B) • A (or B) is concentration of drug A (or B) that is the lowest inhibitory concentration\nThe FIC indices were interpreted using the following criteria: • ≦0.5=Synergy • >0.5–1.0=Additive • >1.0–4.0=Indifference • >4.0=Antagonism"}}, "note": "Where two headings read alike, the source gives them in different places.", "data": [{"smiles": "CO/N=C1\\CN(c2nc3c(cc2F)c(=O)c(C(=O)O)cn3C2CC2)CC1CN", "note": "(racemic) [gemifloxacin, (R,S)-7-(3-aminomethyl-4-methoxyiminopyrrolidin-1-yl)-1-cyclopropyl-6-fluoro-4-oxo-1,4-dihydro-1,8-naphthyridine-3-carboxylic acid]", "values": [{"measurement": "MIC", "setting": "S. saprophyticus 662; Staphylococcus saprophyticus, 662, in presence of amoxicillin 0.125 μg/ml, read-out: gemifloxacin MIC", "value": 0.004, "unit": "µg/mL"}, {"measurement": "gemifloxacin MIC", "setting": "S. saprophyticus 662; drug alone, no unit in this line (other lines μg/ml)", "value": 0.016}, {"measurement": "MIC range", "setting": "[1]; 27 clinically isolated P. aeruginosa", "value": "0.25 to 32", "unit": "µg/mL"}, {"measurement": "FICA", "setting": "[1]; P. aeruginosa 6003", "value": 0.25}, {"measurement": "Cgemifloxacin MIC", "setting": "[1]; P. aeruginosa 6003", "value": 0.25, "unit": "µg/mL"}, {"measurement": "FICA", "setting": "[1]; P. aeruginosa 6021", "value": 0.25}, {"measurement": "Cgemifloxacin MIC", "setting": "[1]; P. aeruginosa 6021", "value": 0.25, "unit": "µg/mL"}, {"measurement": "FICA", "setting": "[1]; P. aeruginosa 6030", "value": 0.13}, {"measurement": "Cgemifloxacin MIC", "setting": "[1]; P. aeruginosa 6030", "value": 0.125, "unit": "µg/mL"}, {"measurement": "FICA", "setting": "[1]; P. aeruginosa 6045", "value": 0.25}, {"measurement": "Cgemifloxacin MIC", "setting": "[1]; P. aeruginosa 6045", "value": 1, "unit": "µg/mL"}, {"measurement": "FICA", "setting": "[1]; P. aeruginosa 6047", "value": 0.13}, {"measurement": "Cgemifloxacin MIC", "setting": "[1]; P. aeruginosa 6047", "value": 1, "unit": "µg/mL"}, {"measurement": "FICA", "setting": "[1]; P. aeruginosa 6113", "value": 0.25}, {"measurement": "Cgemifloxacin MIC", "setting": "[1]; P. aeruginosa 6113", "value": 0.125, "unit": "µg/mL"}, {"measurement": "FICA", "setting": "[1]; P. aeruginosa 6123", "value": 0.13}, {"measurement": "Cgemifloxacin MIC", "setting": "[1]; P. aeruginosa 6123", "value": 0.125, "unit": "µg/mL"}, {"measurement": "FICA", "setting": "[1]; P. aeruginosa 6173", "value": 0.13}, {"measurement": "Cgemifloxacin MIC", "setting": "[1]; P. aeruginosa 6173", "value": 0.125, "unit": "µg/mL"}, {"measurement": "FICA", "setting": "[1]; P. aeruginosa P032", "value": 0.13}, {"measurement": "Cgemifloxacin MIC", "setting": "[1]; P. aeruginosa P032", "value": 0.0625, "unit": "µg/mL"}, {"measurement": "FICA", "setting": "[1]; P. aeruginosa P036", "value": 0.13}, {"measurement": "Cgemifloxacin MIC", "setting": "[1]; P. aeruginosa P036", "value": 1, "unit": "µg/mL"}, {"measurement": "FICA", "setting": "[1]; P. aeruginosa P039", "value": 0.25}, {"measurement": "Cgemifloxacin MIC", "setting": "[1]; P. aeruginosa P039", "value": 0.5, "unit": "µg/mL"}, {"measurement": "MIC", "setting": "[1]; P. aeruginosa 6003", "value": 1, "unit": "µg/mL"}, {"measurement": "MIC", "setting": "[1]; P. aeruginosa 6021", "value": 1, "unit": "µg/mL"}, {"measurement": "MIC", "setting": "[1]; P. aeruginosa 6030", "value": 1, "unit": "µg/mL"}, {"measurement": "MIC", "setting": "[1]; P. aeruginosa 6045", "value": 4, "unit": "µg/mL"}, {"measurement": "MIC", "setting": "[1]; P. aeruginosa 6047", "value": 8, "unit": "µg/mL"}, {"measurement": "MIC", "setting": "[1]; P. aeruginosa 6113", "value": 0.5, "unit": "µg/mL"}, {"measurement": "MIC", "setting": "[1]; P. aeruginosa 6123", "value": 1, "unit": "µg/mL"}, {"measurement": "MIC", "setting": "[1]; P. aeruginosa 6173", "value": 1, "unit": "µg/mL"}, {"measurement": "MIC", "setting": "[1]; P. aeruginosa P032", "value": 0.5, "unit": "µg/mL"}, {"measurement": "MIC", "setting": "[1]; P. aeruginosa P036", "value": 8, "unit": "µg/mL"}, {"measurement": "MIC", "setting": "[1]; P. aeruginosa P039", "value": 2, "unit": "µg/mL"}]}]}
